Source: patent US20190183868A1, “FORMULATIONS AND TREATMENTS EMPLOYING HYDROXYPYRIDONATE ACTINIDE/LANTHANIDE DECORPORATION AGENTS” (priority 2016, published 2019)

Experiments:
[1] = Delayed parenteral (ip) chelation treatment of mice contaminated iv with ^238Pu-citrate; assay type: in vivo, Swiss-Webster mice; details: for sustained action beyond 24 hours after treatment: cumulative ^238Pu excretion, FIG. 4; for ^238Pu excretion pathway enhanced by treatment: independent of post-contamination treatment time, FIG. 5; for adverse effects at the dose levels used: both studies (delayed and prophylactic treatment); for time by which rates of elimination became slower than in control animals: prompt treatment 1 hour post-contamination; for ^238Pu elimination, total body burden and tissue content versus saline-treated controls: 7 days after treatment
Description: (§1) A stock solution of ^238Pu-nitrate in 4 M HNO3 was purchased from Eckert and Ziegler Isotope Products (Valencia, CA, USA) and used to prepare injection solutions. Contamination doses consisted of 0.2 mL aliquots of solutions containing 0.74 kBq (1.16 ng) of ^238Pu in 0.008 M sodium citrate and 0.14 M NaCl, pH 4. The ligands 3,4,3-LI(1,2-HOPO) and 5-LIO(Me-3,2-HOPO) were prepared by Synthetech, Inc. (Albany, Oreg., USA) and Albany Molecular Research, Inc. (Albany, NY, USA), respectively, as described previously. DTPA was obtained from Sigma-Aldrich (St. Louis, Mo., USA) and was formulated as Ca-DTPA using CaCO3 and NaOH, similarly to the formerly available drug product commercialized by Hameln Pharmaceuticals gmbh (Hameln, Germany). Ligand solutions were prepared such that the selected dosages ([…] for Ca-DTPA, 30 or 100 mol/kg for 3,4,3-LI(1,2-HOPO), and 100 or 200 mol/kg for 5-LIO(Me-3,2-HOPO)) were contained in 0.5 mL of 0.14 M NaCl, with the pH adjusted to 7.4-8.4 with 1 N NaOH. All solutions were filter-sterilized (0.22 μm) prior to administration. The concentration of each solution was verified by high-performance liquid chromatography, following modified published methods.
(§2) All procedures and protocols used in the described in vivo studies were reviewed and approved by the Institutional Animal Care and Use Committee of Lawrence Berkeley National Laboratory and were performed in AAALAC accredited facilities. The animals used were young adult (86±6 days old for delayed treatment experiment and 90±3 days old for prophylactic treatment experiment) female (30.7±4.0 g for delayed treatment experiment and 30.8±1.6 g for prophylactic treatment experiment) Swiss-Webster mice (Simonsen Laboratories, Gilroy, Calif., USA). Gross body and tissue compositions, plasma, extracellular fluid, and red cell volumes of the whole body, major tissues and organs of these mice (intact or bled 25 to 40% of their total blood volume) have been determined previously. Mice were kept under a 12-hour light cycle with controlled temperature (18-22° C.) and relative humidity (30-70%), and were given water and food ad libitum. Each group of mice was housed together in a plastic stock cage lined with a 0.5 cm layer of highly absorbent low-ash pelleted cellulose bedding (ALPHA-dri®) for separation of urine and feces. Intravenous (iv) injections into a warmed lateral tail vein, intraperitoneal (ip) injections, oral administrations (po, through gastric intubation) and euthanasia were performed under isoflurane anesthesia. Treatment dose volumes were adjusted based on the weight of the mouse, with a 0.5 mL volume corresponding to a 35 g mouse. To probe the effect of delayed treatment, groups of five mice were injected iv with a single dose of ^238Pu-citrate, and ligand or control saline solutions were administered ip once at the following post-contamination treatment times: 1 h, 5 h, 16 h, 24 h, 3 d, 7 d. Excreta were collected daily for 7 days. Animals were euthanized 7 days after treatment. To probe the effect of prophylactic treatment, groups of five mice were first administered ligand or control saline solutions ip or po once at the following pre-contamination treatment times: −1 h, −6 h, −16 h, −24 h, −30 h, −40 h, −48 h. Mice were then injected iv with a single dose of ^238Pu-citrate and excreta were collected daily for 3 days. Animals were euthanized 3 days (72 h) after contamination. Mice were euthanized by cervical dislocation over their respective cage to collect the urine expelled at death, and immediately wrapped in plastic and frozen for later dissection.
(§3) After partial thawing of the frozen mice, livers and kidneys were dissected, and the abdominal tissue remainder (ATR, which includes intact gastrointestinal (GI) tract, reproductive organs, spleen, urinary bladder, and abdominal fat) was removed. The livers, kidneys, ATR, and partially eviscerated carcasses were managed as individual samples. […]

[2] = Prophylactic parenteral or oral chelation treatment of mice before iv ^238Pu-citrate contamination; assay type: in vivo, Swiss-Webster mice; details: for prophylactic window with significant reduction of body and tissue ^238Pu burden: parenteral (ip) administration prior to contamination; for prophylactic window with significant reductions in total body, skeleton and liver ^238Pu: oral administration, versus saline controls
Description: as §1, §2, §3

[3] = Gd-153 decorporation in mice injected with ^153Gd citrate (Example 9); assay type: in vivo; details: for excretion pathway: Gd-153
Description: The present example is an evaluation of the metal-removal effectiveness of various molecules, including 3,4,3-LI(1,2-HOPO) and DTPA. The arrangements tested (which compounds, how much, how long pre or post-contamination the compound was administered, etc.) are outlined in Table 9.1.
The results of the various test arrangements in Table 9.1 are detailed in FIGS. 8A-8Q. The data is plotted as a percent of recovered dose (%RD), with whole animal and specific tissue isotope content determine at a unique time point (4 days post metal challenge) while excreta are determined daily until necropsy. […] The almost-exclusively-fecal excretion pathway of 3,4,3-LI(1,2-HOPO) is also remarkably different from that of DTPA (urinary). […] FIGS. 8A-8C depict a general overview of the results. FIG. 8D depicts a comparative analysis of the recovered dose in the body vs excreta. FIGS. 8E-8P depict a break down by tissue type, including brain (FIG. 8E), Thymus (FIG. 8F), heart (FIG. 8G), lungs (FIG. 8H), spleen (FIG. 8I), kidneys (FIG. 8J), abdominal remaining tissue (ART, FIG. 8K), all other soft tissues (SOFT, FIG. 8L), liver (FIG. 8M), and skeleton (SKEL, FIG. 8N). FIGS. 8O and 8P show the total urinary and fecal excretion at the time of necropsy. FIG. 8Q depicts the daily excreta.

[4] = Complex stability constant in vitro, Pu(IV); assay type: binding
Source text: (§4) The mechanism of action of 3,4,3-LI(1,2-HOPO) is a chelation mechanism, in which the compound binds the targeted actinide and forms a stable complex that can be eliminated through excretion pathways. Chelation is likely to be clinically efficacious if the affinity of the chelating agent for the targeted actinide metal ion is higher than those of potential biological ligands (such as proteins and bone matrices) and if its affinity for the targeted actinide metal ion is more specific than for essential divalent metal ions. A quantitative tool to predict the efficacy of a chelating agent and confirm its potential for actinide chelation is the determination of the corresponding actinide complex stability constants in vitro. As outlined in Example 2 below, these constants were evaluated for metals such as Pu(IV) (Log β110>41.5) or Cm(III) (Log β110=21.8), and support the chelation mechanism of action by 3,4,3-LI(1,2-HOPO).

[5] = Complex stability constant in vitro, Cm(III); assay type: binding
Source text: as §4

[6] = Complex stability constant in vitro, Gd(III); assay type: binding
Source text: as §4

[7] = Pharmacokinetics and biodistribution of ^14C-labeled ligand in mice; assay type: in vivo, Swiss-Webster mouse; details: for metabolic degradation: ^14C-labeled ligands
Source text: The pharmacokinetics and biodistribution profile of the ^14C-labeled 3,4,3-LI(1,2-HOPO) were recently characterized in the young Swiss-Webster mouse model. After parenteral injection, the radiolabeled compound was rapidly distributed into high vascular tissues, and highest kidney and liver concentrations were seen as early as 1-hour post-administration. However, those high concentrations […] and more strikingly, about 40% of the administered dose was still in various tissues and organs after 24 hours. […] Nevertheless, retention of the ligand was significant within the first 6 hours after oral administration, which also corroborates the shorter but consequent prophylactic activity of 3,4,3-LI(1,2-HOPO) after oral administration.
Those differences have been discussed previously and are presumably based on respective ligand and actinide-complex physico-chemical parameters such as solubility, lipophilicity, and ionization constants. […] It is therefore likely that the radionuclide excretion path is ligand-driven.
(§5) Oral Activity. Both compounds are orally active actinide chelators: when administered orally to mice or beagles after a Pu injection, 3,4,3-LI-1,2-HOPO and 5-LIO-Me-3,2-HOPO can remove up to 80% and 60%, respectively, of the injected Pu.

[8] = Clearing circulating or newly deposited Pu from mouse tissues compared with CaNa3-DTPA; assay type: in vivo
Source text: For example, the efficiency of 3,4,3-LI-1,2-HOPO for clearing circulating Pu from mouse tissues ranges from 100 times (skeleton) to 240 times (soft tissues) that of CaNa3-DTPA in five different protocols. In addition, the optimal activity dose of 3,4,3-LI-1,2-HOPO for removing newly deposited Pu from mice is 2.5% of the dose of CaNa3-DTPA used clinically. The tetradentate 5-LIO-Me-3,2-HOPO has potential therapeutic value for Pu, U, Am and Np, and its efficiency for clearing circulating Pu from mouse tissues ranges from 5 times (skeleton) to 15 times (liver) that of CaNa3-DTPA.

[9] = Oral activity: removal of injected Pu after oral administration; assay type: in vivo; details: administered orally after a Pu injection, mice or beagles
Source text: as §5

[10] = ADME studies with ^14C-labeled 3,4,3-LI(1,2-HOPO) in rats (brain); assay type: in vivo; details: ^14C-labeled ligand; traces in rat brain several days after administration
Source text: (§6) This property is particularly relevant to target Gd deposited in the brain.

[11] = Decorporation of actinide ions in animal studies, potency versus DTPA; assay type: in vivo
Source text: as §6

[12] = single ip dose 1 hour to 16 hours post-contamination

## diethylenetriamine pentaacetic acid [DTPA, reference compound]
[1]
  sustained action beyond 24 hours after treatment: visible over several days after treatment
  ^238Pu excretion pathway enhanced by treatment: enhanced urinary excretion
[2]
  prophylactic window with significant reduction of body and tissue ^238Pu burden: 6 h
[3]
  excretion pathway: urinary

## O=C(NCCCN(CCCCN(CCCNC(=O)c1cccc(=O)n1O)C(=O)c1cccc(=O)n1O)C(=O)c1cccc(=O)n1O)c1cccc(=O)n1O [3,4,3-LI(1,2-HOPO)]
[1]; all tested treatment time points
  ^238Pu skeleton content: significantly reduced
[1]
  adverse effects at the dose levels used: did not result in any discernable adverse effects
  sustained action beyond 24 hours after treatment: visible throughout the seven-day excreta collection period
  ^238Pu excretion pathway enhanced by treatment: primarily through the biliary pathway
  time by which rates of elimination became slower than in control animals: 3 days post-treatment
[1]; [12]
  decrease in ^238Pu content versus DTPA treatment: significantly better than those observed after DTPA treatment
  ^238Pu elimination, total body burden and tissue content versus saline-treated controls: significant increases in ^238Pu elimination rates
[1]; treatment delayed 24 hours to 7 days after contamination
  ^238Pu elimination: significantly enhanced
[2]; 30 μmol/kg ip 1 hour prior to contamination
  ^238Pu urinary output relative to fecal output: 3 fold
[2]; ip injection 48 hours before contamination
  ^238Pu excreted within 3 days: up to 50%
[2]
  prophylactic window with significant reductions in total body, skeleton and liver ^238Pu: 6 h
  prophylactic window with significant reduction of body and tissue ^238Pu burden: ≥ 48 h
[2]; prophylactic ip treatment
  full body, skeleton, liver, soft tissue and kidney ^238Pu content versus saline- and DTPA-treated groups: large significant reductions
[2]; reflected in lack of efficacy for earlier oral treatments
  oral bioavailability: low
[4]
  Log β110: > 41.5
[5]
  Log β110: 21.8
[6]
  Log β110: 20.5
[3]; 100 μmol/kg ip, 48 hours post-exposure
  Gd-153 removal: extremely efficient
[3]; 100 μmol/kg ip, up to 24 hours prophylactically
  Gd-153 decorporation: high and almost quantitative level of decorporation
[3]
  excretion pathway: almost-exclusively-fecal
[3]; compared with DTPA
  Gd-153 removal from kidneys: more efficient than DTPA
[3]; mouse, in vivo
  Gd-153 removal from the skeleton: ability at removing Gd-153 from the skeleton
[7]
  metabolic degradation: stable to metabolic degradation
[7]; after 24 hours, parenteral injection, ^14C-labeled
  administered dose still in various tissues and organs: about 40%
[7]; mice, parenteral or oral administration, ^14C-labeled
  main mode of elimination of the ligand: biliary pathway is the main mode of elimination
[7]; post-administration, parenteral injection, ^14C-labeled
  time of highest kidney and liver concentrations: 1 h
[8]; mice
  optimal activity dose for removing newly deposited Pu, as share of the CaNa3-DTPA dose used clinically: 2.5%
[8]; mouse skeleton
  efficiency for clearing circulating Pu relative to CaNa3-DTPA: 100 times
[8]; mouse soft tissues
  efficiency for clearing circulating Pu relative to CaNa3-DTPA: 240 times
[9]
  injected Pu removed: up to 80%
[10]
  blood-brain barrier penetration: can penetrate the blood-brain barrier
[11]
  potency relative to DTPA at decorporating actinide ions: up to 30 times

## Cn1ccc(C(=O)NCCOCCNC(=O)c2ccn(C)c(=O)c2O)c(O)c1=O [5-LIO(Me-3,2-HOPO)]
[1]
  adverse effects at the dose levels used: did not result in any discernable adverse effects
  sustained action beyond 24 hours after treatment: did not display significant sustained action
  ^238Pu excretion pathway enhanced by treatment: primarily through the biliary pathway
  time by which rates of elimination became slower than in control animals: 2 days post-treatment
[1]; [12]
  ^238Pu elimination, total body burden and tissue content versus saline-treated controls: significant increases in ^238Pu elimination rates
[2]
  prophylactic window with significant reductions in total body, skeleton and liver ^238Pu: 6 h
  prophylactic window with significant reduction of body and tissue ^238Pu burden: 1 h
[7]
  metabolic degradation: stable to metabolic degradation
[8]; mouse liver
  efficiency for clearing circulating Pu relative to CaNa3-DTPA: 15 times
[8]; mouse skeleton
  efficiency for clearing circulating Pu relative to CaNa3-DTPA: 5 times
[9]
  injected Pu removed: ≤ 60%
